ChEMBL document CHEMBL1201862, “PubChem BioAssay data set” (2004)
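All cell lines were grown in 96-well plates and treated with compound for 48 hours. The concentration for 50% growth inhibition is given as GI50.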 Active and inactive are the calls of the source. No stated cut-off is given here; in the data, active = GI50 up to about 1.1 µM and inactive = higher.

What was measured:
Assay in all cases: growth of human tumour cells (NCI), 48 h
DLD-1 = system: DLD-1
DMS-114 = system: DMS-114
SK-MEL-5 = system: SK-MEL-5
OVCAR-4 = system: OVCAR-4
DMS-273 = system: DMS-273
UACC-257 = system: UACC-257
NCI-H522 = system: NCI-H522
HCT-116 = system: HCT-116
HCC 2998 = system: HCC 2998
K562 = system: K562
SK-MEL-2 = system: SK-MEL-2
M14 = system: M14
LXFL 529 = system: LXFL 529
CCRF-CEM = system: CCRF-CEM
SK-MEL-28 = system: SK-MEL-28
IGROV-1 = system: IGROV-1
OVCAR-8 = system: OVCAR-8
M19-MEL = system: M19-MEL
SN12C = system: SN12C
EKVX = system: EKVX
HCT-15 = system: HCT-15
MOLT-4 = system: MOLT-4
U-251 = system: U-251
COLO 205 = system: COLO 205
SF-268 = system: SF-268
OVCAR-3 = system: OVCAR-3
A498 = system: A498
KM12 = system: KM12
SW-620 = system: SW-620
ACHN = system: ACHN
HOP-62 = system: HOP-62
HOP-92 = system: HOP-92
SNB-78 = system: SNB-78
SK-OV-3 = system: SK-OV-3
HT-29 = system: HT-29
UO-31 = system: UO-31
CAKI-1 = system: CAKI-1
SNB-75 = system: SNB-75
UACC-62 = system: UACC-62
XF498 = system: XF498
A549 = system: A549
SR = system: SR
RPMI-8226 = system: RPMI-8226
NCI-H23 = system: NCI-H23
Malme-3M = system: Malme-3M
NCI-H460 = system: NCI-H460
OVCAR-5 = system: OVCAR-5
KM-20L2 = system: KM-20L2
TK-10 = system: TK-10
SF-539 = system: SF-539
SNB-19 = system: SNB-19
SF-295 = system: SF-295
HL-60 = system: HL-60
NCI-H226 = system: NCI-H226
786-0 = system: 786-0
LOX IMVI = system: LOX IMVI
RXF 393 = system: RXF 393

Cn1c(=O)c2nc(N3CCOCC3)cnc2n(C)c1=O
GI50 (DLD-1): > 100 µM (inactive)
GI50 (DMS-114): > 100 µM (inactive)
GI50 (SK-MEL-5): > 100 µM (inactive)
GI50 (OVCAR-4): > 100 µM (inactive)
GI50 (DMS-273): > 100 µM (inactive)
GI50 (UACC-257): > 100 µM (inactive)
GI50 (NCI-H522): > 100 µM (inactive)
GI50 (HCT-116): > 100 µM (inactive)
GI50 (HCC 2998): > 100 µM (inactive)
GI50 (K562): > 100 µM (inactive)
GI50 (SK-MEL-2): > 100 µM (inactive)
GI50 (M14): > 100 µM (inactive)
GI50 (LXFL 529): > 100 µM (inactive)
GI50 (CCRF-CEM): > 100 µM (inactive)
GI50 (SK-MEL-28): > 100 µM (inactive)
GI50 (IGROV-1): > 100 µM (inactive)
GI50 (OVCAR-8): > 100 µM (inactive)
GI50 (M19-MEL): > 100 µM (inactive)
GI50 (SN12C): > 100 µM (inactive)
GI50 (EKVX): > 100 µM (inactive)
GI50 (HCT-15): > 100 µM
GI50 (MOLT-4): > 100 µM (inactive)
GI50 (U-251): > 100 µM (inactive)
GI50 (COLO 205): > 100 µM (inactive)
GI50 (SF-268): > 100 µM (inactive)
GI50 (OVCAR-3): > 100 µM (inactive)
GI50 (A498): > 100 µM (inactive)
GI50 (KM12): > 100 µM (inactive)
GI50 (SW-620): > 100 µM (inactive)
GI50 (ACHN): > 100 µM (inactive)
GI50 (HOP-62): > 100 µM (inactive)
GI50 (HOP-92): > 100 µM (inactive)
GI50 (SNB-78): > 100 µM (inactive)
GI50 (SK-OV-3): > 100 µM (inactive)
GI50 (HT-29): > 100 µM (inactive)
GI50 (UO-31): > 100 µM (inactive)
GI50 (CAKI-1): > 100 µM (inactive)
GI50 (SNB-75): > 100 µM (inactive)
GI50 (UACC-62): > 100 µM (inactive)
GI50 (XF498): > 100 µM (inactive)
GI50 (A549): > 100 µM (inactive)
GI50 (SR): > 100 µM (inactive)
GI50 (RPMI-8226): > 100 µM (inactive)
GI50 (NCI-H23): > 100 µM (inactive)
GI50 (Malme-3M): > 100 µM (inactive)
GI50 (NCI-H460): > 100 µM (inactive)
GI50 (OVCAR-5): > 100 µM (inactive)
GI50 (KM-20L2): > 100 µM (inactive)
GI50 (TK-10): > 100 µM (inactive)
GI50 (SF-539): > 100 µM (inactive)
GI50 (SNB-19): > 100 µM (inactive)
GI50 (SF-295): > 100 µM (inactive)
GI50 (HL-60): > 100 µM (inactive)

Cc1ccn2c(c1)nc1nc3ccccc3nc12
GI50 (DLD-1): > 100 µM (inactive)
GI50 (NCI-H226): > 100 µM (inactive)
GI50 (DMS-114): > 100 µM (inactive)
GI50 (SK-MEL-5): > 100 µM (inactive)
GI50 (OVCAR-4): > 100 µM (inactive)
GI50 (786-0): > 100 µM (inactive)
GI50 (DMS-273): > 100 µM (inactive)
GI50 (UACC-257): > 100 µM (inactive)
GI50 (NCI-H522): > 100 µM (inactive)
GI50 (K562): > 100 µM (inactive)
GI50 (SK-MEL-2): > 100 µM (inactive)
GI50 (M14): > 100 µM (inactive)
GI50 (LXFL 529): > 100 µM (inactive)
GI50 (CCRF-CEM): > 100 µM (inactive)
GI50 (SK-MEL-28): > 100 µM (inactive)
GI50 (LOX IMVI): > 100 µM (inactive)
GI50 (RXF 393): > 100 µM (inactive)
GI50 (IGROV-1): > 100 µM (inactive)
GI50 (OVCAR-8): > 100 µM (inactive)
GI50 (M19-MEL): > 100 µM (inactive)
GI50 (EKVX): > 100 µM (inactive)
GI50 (HCT-15): > 100 µM
GI50 (U-251): > 100 µM (inactive)
GI50 (COLO 205): > 100 µM (inactive)
GI50 (SF-268): > 100 µM (inactive)
GI50 (OVCAR-3): > 100 µM (inactive)
GI50 (KM12): > 100 µM (inactive)
GI50 (SW-620): > 100 µM (inactive)
GI50 (ACHN): 96.6 µM (inactive)
GI50 (HOP-62): > 100 µM (inactive)
GI50 (HOP-92): > 100 µM (inactive)
GI50 (SNB-78): > 100 µM (inactive)
GI50 (SK-OV-3): 59.6 µM (inactive)
GI50 (HT-29): > 100 µM (inactive)
GI50 (UO-31): > 100 µM (inactive)
GI50 (CAKI-1): > 100 µM (inactive)
GI50 (SNB-75): 78.5 µM (inactive)
GI50 (UACC-62): > 100 µM (inactive)
GI50 (XF498): > 100 µM (inactive)
GI50 (A549): > 100 µM (inactive)
GI50 (SR): > 100 µM (inactive)
GI50 (RPMI-8226): > 100 µM (inactive)
GI50 (NCI-H23): > 100 µM (inactive)
GI50 (NCI-H460): > 100 µM (inactive)
GI50 (OVCAR-5): > 100 µM (inactive)
GI50 (KM-20L2): > 100 µM (inactive)
GI50 (TK-10): > 100 µM (inactive)
GI50 (SF-539): > 100 µM (inactive)
GI50 (SNB-19): > 100 µM (inactive)
GI50 (SF-295): > 100 µM (inactive)
GI50 (HL-60): > 100 µM (inactive)
